Patent publication US6737383B1, “Herbicidal oxadiazolidines” (priority 1999, dated 2004)

Key:
surinam grass = assay: Test B pre/postemergence surinam grass; format: in vivo, Brachiaria decumbens
Summary of the method: (§1)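 Herbicidal effect was estimated by eye on a ten-point control scale after plants spent twelve to sixteen days in a greenhouse following soil or foliar treatment. Foliar sprays targeted plants at one to four leaves; all doses were formulated in a non-phytotoxic solvent with surfactant.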

smallflower flatsedge = assay: Test B flood test smallflower flatsedge; format: in vivo, Cyperus difformis
Summary of the method: (§2)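 Plants were grown to the 2-leaf stage before treatment with test chemical, then held in a greenhouse for twelve to sixteen days. Injury was visually rated against untreated controls on a 0–10 scale, where 0 is no effect and 10 is complete control.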

giant foxtail = assay: Test B pre/postemergence giant foxtail; format: in vivo, Setaria faberii
Summary of the method: as §1

bamyardgrass = assay: Test B flood test barnyardgrass; format: in vivo, Echinochloa crus-galli
Summary of the method: as §2

corn = assay: Test B pre/postemergence corn; format: in vivo, Zea mays
Summary of the method: as §1

rape = assay: Test B pre/postemergence rape; format: in vivo, Brassica napus
Summary of the method: as §1

morningglory = assay: Test B pre/postemergence morningglory; format: in vivo, Ipomoea hederacea
Summary of the method: as §1

crabgrass = assay: Test B pre/postemergence crabgrass; format: in vivo, Digitaria sanguinalis
Summary of the method: as §1

soybean = assay: Test B pre/postemergence soybean; format: in vivo, Glycine max
Summary of the method: as §1

pigweed = assay: Test B pre/postemergence pigweed; format: in vivo, Amaranthus retroflexus
Summary of the method: as §1

velvetleaf = assay: Test B pre/postemergence velvetleaf; format: in vivo, Abutilon theophrasti
Summary of the method: as §1

blackgrass = assay: Test B pre/postemergence blackgrass; format: in vivo, Alopecurus myosuroides
Summary of the method: as §1

wild oat = assay: Test B pre/postemergence wild oat; format: in vivo, Avena fatua
Summary of the method: as §1

purple nutsedge = assay: Test B pre/postemergence purple nutsedge; format: in vivo, Cyperus rotundus
Summary of the method: as §1

sugar beet = assay: Test B pre/postemergence sugar beet; format: in vivo, Beta vulgaris
Summary of the method: as §1

cocklebur = assay: Test B pre/postemergence cocklebur; format: in vivo, Xanthium strumarium
Summary of the method: as §1

[1] = Preemergence, Rate 31 g/ha, visual rating, scale 0 to 10 (0 no effect, 10 complete control)
[2] = Preemergence, Rate 62 g/ha, scale of 0 to 10 where 0 is no effect and 10 is complete control
[3] = Preemergence, Rate 125 g/ha, 0 is no effect, 10 is complete control
[4] = Preemergence, Rate 250 g/ha, scale 0 to 10, 0 is no effect, 10 is complete control
[5] = Rate 31 g/ha, Postemergence, scale 0 to 10
[6] = Rate 62 g/ha, Postemergence, scale of 0 to 10 where 0 is no effect and 10 is complete control
[7] = Rate 31 g/ha, Pre-emergence section (flood test species), scale 0 to 10
[8] = Rate 62 g/ha, headed Pre-emergence (flood test species), scale 0 to 10 (0 no effect, 10 complete control)
[9] = Rate 125 g/ha, Pre-emergence, flood test species, scale 0 to 10 where 0 is no effect and 10 is complete control
[10] = Rate 250 g/ha, Pre-emergence, flood-test species, scale 0 to 10, 0 is no effect, 10 is complete control
[11] = Rate 125 g/ha, Postemergence, scale 0 to 10

Cc1ccccc1-n1c(=O)on(C(=O)N(c2ccc(F)cc2)C2CCC2)c1=O [Compound 200]
B. signalgrass plant response rating (surinam grass; [1]): 0
B. signalgrass plant response rating (surinam grass; [2]): 0
B. signalgrass plant response rating (0 to 10 scale) (surinam grass; [3]): 0
B. signalgrass plant response rating (surinam grass; [4]): 0
B. signalgrass plant response rating (surinam grass; [5]): 0
B. signalgrass plant response rating (surinam grass; [6]): 0
B. signalgrass plant response rating (surinam grass; Rate 125 g/ha, Postemergence, scale 0 (no effect) to 10 (complete control)): 0
Plant response rating, B. signalgrass (surinam grass; Rate 250 g/ha, Postemergence, scale 0 to 10, 0 is no effect, 10 is complete control): 0
S. Flatsedge plant response rating (smallflower flatsedge; [7]): 0
S. Flatsedge plant response rating (smallflower flatsedge; [8]): 0
S. Flatsedge plant response rating (smallflower flatsedge; [9]): 0
S. Flatsedge plant response rating (smallflower flatsedge; [10]): 0
Giant foxtail plant response rating (giant foxtail; [1]): 0
Giant foxtail plant response rating (giant foxtail; [2]): 0
Giant foxtail plant response rating (0 to 10 scale) (giant foxtail; [3]): 4
Giant foxtail plant response rating (giant foxtail; [4]): 6
Giant foxtail plant response rating (giant foxtail; [5]): 0
Giant foxtail plant response rating (giant foxtail; [6]): 0
Giant foxtail plant response rating (giant foxtail; [11]): 0
Plant response rating (0 to 10; 0 is no effect, 10 is complete control), Giant foxtail (giant foxtail; Rate 250 g/ha, Postemergence): 0
Barnyardgrass plant response rating (bamyardgrass; [7]): 0
Barnyardgrass plant response rating (bamyardgrass; [8]): 0
Barnyardgrass plant response rating (bamyardgrass; [9]): 0
Barnyardgrass plant response rating (bamyardgrass; [10]): 0
Corn plant response rating (corn; [1]): 0
Corn plant response rating (corn; [2]): 0
Corn plant response rating (0 to 10 scale) (corn; [3]): 0
Corn plant response rating (corn; [4]): 0
Corn plant response rating (corn; [5]): 0
Corn plant response rating (corn; [6]): 0
Corn plant response rating (corn; [11]): 0
Plant response rating (0 to 10; 0 is no effect, 10 is complete control), Corn (corn; Rate 250 g/ha, Postemergence): 0
Rape plant response rating (rape; [1]): 0
Rape plant response rating (rape; [2]): 0
Rape plant response rating (0 to 10 scale) (rape; [3]): 0
Rape plant response rating (rape; [4]): 0
Rape plant response rating (rape; [5]): 0
Rape plant response rating (rape; [6]): 0
Rape plant response rating (rape; [11]): 0
Plant response rating (0 to 10; 0 is no effect, 10 is complete control), Rape (rape; Rate 250 g/ha, Postemergence): 0
Morningglory plant response rating (morningglory; [1]): 0
Morningglory plant response rating (morningglory; [2]): 0
Morningglory plant response rating (0 to 10 scale) (morningglory; [3]): 0
Morningglory plant response rating (morningglory; [4]): 0
Morningglory plant response rating (morningglory; [5]): 0
Morningglory plant response rating (morningglory; [6]): 0
Morningglory plant response rating (morningglory; [11]): 0
Plant response rating (0 to 10; 0 is no effect, 10 is complete control), Morningglory (morningglory; Rate 250 g/ha, Postemergence): 2
Crabgrass plant response rating (crabgrass; [1]): 0
Crabgrass plant response rating (crabgrass; [2]): 0
Crabgrass plant response rating (0 to 10 scale) (crabgrass; [3]): 2
Crabgrass plant response rating (crabgrass; [4]): 6
Crabgrass plant response rating (crabgrass; [5]): 0
Crabgrass plant response rating (crabgrass; [6]): 0
Crabgrass plant response rating (crabgrass; [11]): 1
Plant response rating (0 to 10; 0 is no effect, 10 is complete control), Crabgrass (crabgrass; Rate 250 g/ha, Postemergence): 2
Soybean plant response rating (soybean; [1]): 0
Soybean plant response rating (soybean; [2]): 0
Soybean plant response rating (0 to 10 scale) (soybean; [3]): 0
Soybean plant response rating (soybean; [4]): 0
Soybean plant response rating (soybean; [6]): 2
Soybean plant response rating (soybean; [11]): 2
Plant response rating (0 to 10; 0 is no effect, 10 is complete control), Soybean (soybean; Rate 250 g/ha, Postemergence): 2
Redroot pigweed plant response rating (pigweed; [1]): 0
Redroot pigweed plant response rating (pigweed; [2]): 0
Redroot pigweed plant response rating (0 to 10 scale) (pigweed; [3]): 0
Redroot pigweed plant response rating (pigweed; [4]): 0
Redroot pigweed plant response rating (pigweed; [5]): 0
Redroot pigweed plant response rating (pigweed; [6]): 0
Redroot pigweed plant response rating (pigweed; [11]): 0
Plant response rating (0 to 10; 0 is no effect, 10 is complete control), Redroot pigweed (pigweed; Rate 250 g/ha, Postemergence): 0
Velvetleaf plant response rating (velvetleaf; [1]): 0
Velvetleaf plant response rating (velvetleaf; [2]): 0
Velvetleaf plant response rating (velvetleaf; [4]): 0
Velvetleaf plant response rating (velvetleaf; [6]): 0
Velvetleaf plant response rating (velvetleaf; [11]): 0
Plant response rating (0 to 10; 0 is no effect, 10 is complete control), Velvetleaf (velvetleaf; Rate 250 g/ha, Postemergence): 1
Blackgrass plant response rating (blackgrass; [1]): 0
Blackgrass plant response rating (blackgrass; [2]): 0
Blackgrass plant response rating (0 to 10 scale) (blackgrass; [3]): 5
Blackgrass plant response rating (blackgrass; [4]): 7
Blackgrass plant response rating (blackgrass; [5]): 0
Blackgrass plant response rating (blackgrass; [6]): 0
Blackgrass plant response rating (blackgrass; [11]): 0
Plant response rating (0 to 10; 0 is no effect, 10 is complete control), Blackgrass (blackgrass; Rate 250 g/ha, Postemergence): 0
Wild oats plant response rating (wild oat; [1]): 0
Wild oats plant response rating (wild oat; [2]): 0
Wild oats plant response rating (wild oat; [4]): 0
Wild oats plant response rating (wild oat; [6]): 0
Wild oats plant response rating (wild oat; [11]): 0
Plant response rating (0 to 10; 0 is no effect, 10 is complete control), Wild oats (wild oat; Rate 250 g/ha, Postemergence): 0
Nutsedge plant response rating (purple nutsedge; [1]): 0
Nutsedge plant response rating (purple nutsedge; [2]): 0
Nutsedge plant response rating (0 to 10 scale) (purple nutsedge; [3]): 0
Nutsedge plant response rating (purple nutsedge; [5]): 0
Nutsedge plant response rating (purple nutsedge; [6]): 0
Nutsedge plant response rating (purple nutsedge; [11]): 0
Plant response rating (0 to 10; 0 is no effect, 10 is complete control), Nutsedge (purple nutsedge; Rate 250 g/ha, Postemergence): 0
Sugarbeets plant response rating (sugar beet; [1]): 0
Sugarbeets plant response rating (sugar beet; [2]): 0
Sugarbeets plant response rating (0 to 10 scale) (sugar beet; [3]): 0
Sugarbeets plant response rating (sugar beet; [4]): 0
Sugarbeets plant response rating (sugar beet; [6]): 0
Sugarbeets plant response rating (sugar beet; [11]): 0
Plant response rating (0 to 10; 0 is no effect, 10 is complete control), Sugarbeets (sugar beet; Rate 250 g/ha, Postemergence): 0
Cocklebur plant response rating (cocklebur; [1]): 0
Cocklebur plant response rating (cocklebur; [2]): 0
Cocklebur plant response rating (0 to 10 scale) (cocklebur; [3]): 0
Cocklebur plant response rating (cocklebur; [4]): 0
Cocklebur plant response rating (cocklebur; [5]): 0
Cocklebur plant response rating (cocklebur; [6]): 0
Cocklebur plant response rating (cocklebur; [11]): 0
Plant response rating (0 to 10; 0 is no effect, 10 is complete control), Cocklebur (cocklebur; Rate 250 g/ha, Postemergence): 0
